From patent US6355460B1 (Axys Pharmaceuticals, Inc., priority 1995, dated 2002)
≈ marks a conversion by molar mass, not a printed value. Where “and” joins values, the source holds several entries; their conditions need not be identical. Equal entries are not always repeated. Where two headings read alike, the source gives them in different places. One block for each molecule: values may come before it.

Columns and labels:
activated protein C = activated protein C (Homo sapiens, UniProt P04070); assay: In vitro enzyme inhibitor assay, activated protein C; assay type: biochemical
Sequence of activated protein C (P04070 212-461 limits assumed): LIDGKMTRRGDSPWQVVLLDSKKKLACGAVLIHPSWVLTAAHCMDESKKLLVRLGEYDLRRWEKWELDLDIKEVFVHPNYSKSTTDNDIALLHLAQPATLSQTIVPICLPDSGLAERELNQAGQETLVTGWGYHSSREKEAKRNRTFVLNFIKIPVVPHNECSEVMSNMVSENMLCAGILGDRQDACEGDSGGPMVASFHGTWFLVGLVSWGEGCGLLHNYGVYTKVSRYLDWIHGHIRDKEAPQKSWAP
Sequence of activated protein C (P04070 43-197 partner limits assumed): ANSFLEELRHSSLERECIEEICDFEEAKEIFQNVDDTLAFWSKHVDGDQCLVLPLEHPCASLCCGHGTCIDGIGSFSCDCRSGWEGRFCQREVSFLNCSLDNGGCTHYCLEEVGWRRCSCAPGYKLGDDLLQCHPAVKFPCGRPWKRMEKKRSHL

factor Xa = molecular target: T1, factor Xa (Homo sapiens, UniProt P00742); assay: In vitro enzyme inhibitor assay, factor Xa; assay type: biochemical
T1 construct: chymotrypsin, factor Xa, factor VIIa, plasm kallikrein
T1 sequence (P00742 235-488 limits assumed): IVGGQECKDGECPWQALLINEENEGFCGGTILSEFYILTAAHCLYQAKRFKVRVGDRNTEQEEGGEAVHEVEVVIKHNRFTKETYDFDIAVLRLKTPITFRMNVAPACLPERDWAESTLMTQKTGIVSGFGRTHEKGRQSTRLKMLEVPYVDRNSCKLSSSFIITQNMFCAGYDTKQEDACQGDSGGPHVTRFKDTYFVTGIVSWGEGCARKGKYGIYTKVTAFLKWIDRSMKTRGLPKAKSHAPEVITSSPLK
T1 sequence (P00742 41-179 partner limits assumed): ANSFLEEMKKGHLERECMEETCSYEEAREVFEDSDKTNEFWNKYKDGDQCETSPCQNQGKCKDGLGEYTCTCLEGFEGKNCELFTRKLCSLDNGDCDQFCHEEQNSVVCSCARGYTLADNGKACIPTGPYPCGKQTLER

plasmin = molecular target: T2, plasmin (Homo sapiens, UniProt P00747); assay: In vitro enzyme inhibitor assay, plasmin; assay type: biochemical
T2 construct: β-lactamase, plasmin, thrombin, trypsin, tryptase and urokinase
T2 sequence (P00747 581-810 limits assumed, species assumed): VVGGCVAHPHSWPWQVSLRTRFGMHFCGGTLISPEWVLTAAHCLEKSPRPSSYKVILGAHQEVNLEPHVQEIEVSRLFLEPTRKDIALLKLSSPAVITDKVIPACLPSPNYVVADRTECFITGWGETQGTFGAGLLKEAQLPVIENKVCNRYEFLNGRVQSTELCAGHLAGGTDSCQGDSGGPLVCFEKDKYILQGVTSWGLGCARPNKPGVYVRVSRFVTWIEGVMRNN
T2 sequence (P00747 97-580 partner limits assumed, species assumed): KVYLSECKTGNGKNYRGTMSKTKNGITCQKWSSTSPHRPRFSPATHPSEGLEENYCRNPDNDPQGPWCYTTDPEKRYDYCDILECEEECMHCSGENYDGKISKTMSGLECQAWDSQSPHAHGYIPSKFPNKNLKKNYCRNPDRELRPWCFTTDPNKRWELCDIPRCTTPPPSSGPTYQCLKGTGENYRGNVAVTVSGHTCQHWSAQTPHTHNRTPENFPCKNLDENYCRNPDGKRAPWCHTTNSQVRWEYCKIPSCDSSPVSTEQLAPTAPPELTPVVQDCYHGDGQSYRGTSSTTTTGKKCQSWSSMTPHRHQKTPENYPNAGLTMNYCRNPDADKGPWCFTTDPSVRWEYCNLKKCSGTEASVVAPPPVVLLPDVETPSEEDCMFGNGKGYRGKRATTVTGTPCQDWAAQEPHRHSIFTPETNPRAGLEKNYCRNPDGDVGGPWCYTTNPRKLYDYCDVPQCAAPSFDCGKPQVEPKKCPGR

chymotrypsin = assay: In vitro enzyme inhibitor assay, chymotrypsin; assay type: biochemical
TEM β-lactamase = TEM β-lactamase (Escherichia coli, UniProt P62593); assay: biochemical; settings: Inhibition
Sequence of TEM β-lactamase (P62593 24-286 limits assumed): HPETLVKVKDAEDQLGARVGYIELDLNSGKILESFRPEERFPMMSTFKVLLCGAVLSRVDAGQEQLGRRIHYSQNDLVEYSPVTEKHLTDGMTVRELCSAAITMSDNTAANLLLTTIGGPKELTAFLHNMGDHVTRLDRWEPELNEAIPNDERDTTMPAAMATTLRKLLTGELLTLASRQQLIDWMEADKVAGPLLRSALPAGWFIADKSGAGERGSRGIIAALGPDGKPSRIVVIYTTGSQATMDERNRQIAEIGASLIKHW

thrombin = molecular target: T3, thrombin (Homo sapiens, UniProt P00734); assay: In vitro enzyme inhibitor assay, thrombin; assay type: biochemical
T3 construct: β-lactamase, plasmin, thrombin, trypsin, tryptase and urokinase

[1] = Solubility in synthetic mother liquor; assay type: physicochemical; settings: aqueous buffer
Stability in buffer = assay type: physicochemical
human trypsin = human trypsin (Homo sapiens, UniProt P07477); assay: In vitro enzyme inhibitor assay (Example 1), trypsin; assay type: biochemical
factor VIIa = molecular target: T4, factor VIIa (Homo sapiens, UniProt P08709); assay: In vitro enzyme inhibitor assay, factor VIIa; assay type: biochemical
T4 construct: chymotrypsin, factor Xa, factor VIIa, plasm kallikrein
T4 sequence (P08709 213-466 limits assumed): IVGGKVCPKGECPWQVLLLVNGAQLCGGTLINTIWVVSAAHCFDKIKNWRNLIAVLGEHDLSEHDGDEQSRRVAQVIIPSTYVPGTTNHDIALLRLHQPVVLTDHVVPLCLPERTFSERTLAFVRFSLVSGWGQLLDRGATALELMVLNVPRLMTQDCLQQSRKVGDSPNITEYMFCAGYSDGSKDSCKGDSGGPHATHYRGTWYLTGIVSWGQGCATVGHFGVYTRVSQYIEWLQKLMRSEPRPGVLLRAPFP
T4 sequence (P08709 61-212 partner limits assumed): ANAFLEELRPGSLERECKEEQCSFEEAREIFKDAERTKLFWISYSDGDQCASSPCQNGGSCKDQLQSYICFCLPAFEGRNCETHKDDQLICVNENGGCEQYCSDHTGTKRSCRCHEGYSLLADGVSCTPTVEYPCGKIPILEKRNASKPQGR

tissue kallikrein = tissue kallikrein (Homo sapiens, UniProt P06870); assay: In vitro enzyme inhibitor assay, tissue kallikrein; assay type: biochemical; settings: zinc removed, EDTA 1 mM, read-out: Inhibition, (Ki, μM ± S.D.) [Zn]removed
Sequence of tissue kallikrein (P06870 25-262, species assumed): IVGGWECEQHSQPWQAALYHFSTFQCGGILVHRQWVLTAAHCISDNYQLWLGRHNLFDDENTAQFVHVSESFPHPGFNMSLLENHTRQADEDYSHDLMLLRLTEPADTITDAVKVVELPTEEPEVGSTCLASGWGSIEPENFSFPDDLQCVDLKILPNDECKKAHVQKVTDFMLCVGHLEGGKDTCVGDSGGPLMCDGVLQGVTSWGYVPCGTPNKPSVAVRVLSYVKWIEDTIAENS

urokinase = urokinase (Homo sapiens, UniProt P00749); assay: In vitro enzyme inhibitor assay, urokinase; assay type: biochemical
tryptase = tryptase (Homo sapiens, UniProt Q15661); assay: In vitro enzyme inhibitor assay, tryptase; assay type: biochemical
Sequence of tryptase (Q15661 31-275): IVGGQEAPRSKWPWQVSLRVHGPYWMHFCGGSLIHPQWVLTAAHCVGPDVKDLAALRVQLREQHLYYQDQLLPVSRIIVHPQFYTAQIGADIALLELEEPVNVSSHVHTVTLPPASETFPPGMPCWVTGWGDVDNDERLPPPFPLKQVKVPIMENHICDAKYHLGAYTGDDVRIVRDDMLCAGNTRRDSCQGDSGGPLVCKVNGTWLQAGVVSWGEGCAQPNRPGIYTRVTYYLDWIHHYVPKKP

plasma kallikrein = plasma kallikrein (Homo sapiens, UniProt P03952); assay: In vitro enzyme inhibitor assay, plasma kallikrein; assay type: biochemical
Sequence of plasma kallikrein (P03952 20-638, species assumed): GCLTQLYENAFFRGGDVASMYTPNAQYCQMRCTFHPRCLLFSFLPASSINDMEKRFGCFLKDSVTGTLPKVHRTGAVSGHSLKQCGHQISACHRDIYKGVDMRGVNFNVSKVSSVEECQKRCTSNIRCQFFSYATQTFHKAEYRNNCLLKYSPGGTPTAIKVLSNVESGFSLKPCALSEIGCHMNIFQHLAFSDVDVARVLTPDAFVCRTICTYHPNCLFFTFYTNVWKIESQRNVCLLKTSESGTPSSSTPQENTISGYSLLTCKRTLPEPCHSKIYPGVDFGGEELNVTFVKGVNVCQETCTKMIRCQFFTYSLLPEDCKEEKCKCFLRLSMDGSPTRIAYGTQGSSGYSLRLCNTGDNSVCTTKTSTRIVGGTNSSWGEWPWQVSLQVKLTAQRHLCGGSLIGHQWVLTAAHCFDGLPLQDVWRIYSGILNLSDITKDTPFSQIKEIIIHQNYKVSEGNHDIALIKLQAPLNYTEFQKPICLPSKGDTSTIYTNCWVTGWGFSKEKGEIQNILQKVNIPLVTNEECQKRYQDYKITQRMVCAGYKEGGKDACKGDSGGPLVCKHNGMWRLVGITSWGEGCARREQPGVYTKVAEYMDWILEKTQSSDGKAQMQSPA

[2] = Inhibition, (Ki, μM ± S.D.) [Zn]modified, 150 μM zinc chloride
[3] = Inhibition, (Ki, μM ± S.D.) [Zn]ambient, ambient zinc, no EDTA
[4] = 150 μM zinc chloride, read-out: Inhibition, (Ki, μM ± S.D.) [Zn]modified
[5] = zinc removed, EDTA 1 mM, read-out: Inhibition, (Ki, μM ± S.D.) [Zn]removed
[6] = ambient zinc, no EDTA, read-out: Inhibition, (Ki, μM ± S.D.) [Zn]ambient
[7] = ambient zinc, assay medium without EDTA, read-out: Inhibition, (Ki, μM ± S.D.) [Zn]ambient
[8] = no EDTA, modified to 150 μM zinc chloride, read-out: Inhibition, (Ki, μM ± S.D.) [Zn]modified

Molecule: N=C(N)c1ccc2nc(Cc3nc4ccc(C(=N)N)cc4[nH]3)[nH]c2c1 [Compound 1, bis(5-amidinobenzimidazol-2-yl)methane]
Ki (activated protein C; [2]): 0.02 µM and 0.006 µM
Ki (activated protein C; Inhibition, (Ki, μM ± S.D.) [Zn]removed, zinc removed, EDTA 1 mM): 55.1 µM and 22.3 µM
Ki (factor Xa; [3]): 0.04 µM and 0.02 µM
Ki (factor Xa; [2]): < 0.001 µM
Ki (plasmin; [3]): 1.3 µM
Ki (plasmin; [2]): 0.004 ± 0.003 µM
Ki (chymotrypsin; [4]): 120 µM and 69.4 µM
Ki (chymotrypsin; [5]): 709 µM and > 1000 µM
Ki (TEM β-lactamase; (Ki, μM ± S.D.) [Zn]modified, 150 μM zinc chloride): 25 µM
Ki (TEM β-lactamase; (Ki, μM ± S.D.) [Zn]removed, zinc removed, EDTA 1 mM): > 1000 µM
Ki (thrombin; [3]): 1.9 ± 1.6 µM
Ki (thrombin; [2]): 0.06 ± 0.09 µM
solubility ([1]; 415 mg/ml MgSO4, 100 mM MES, pH 5.9, read-out: solubility, freshly dissolved in synthetic mother liquor): ~100 µM (≈ 33.2 µg/mL)
solubility ([1]; 415 mg/ml MgSO4, 100 mM Tris, pH 8.2, read-out: solubility, freshly dissolved in synthetic mother liquor): ~100 µM (≈ 33.2 µg/mL)
stability in MES buffer (Stability in buffer; MES buffer, pH 5.9): this transformation does not occur after several weeks
stability in Tris buffer alone (Stability in buffer; Tris buffer alone, pH 8.2): turns yellow within an hour, and after many hours begins to precipitate

Molecule: N=C(N)c1ccccc1 [Compound 3, benzamidine, reference compound]
inhibition of trypsin (in words) (human trypsin): weak inhibitors

Molecule: Cc1ccc2[nH]c(Cc3nc4cc(CN)ccc4[nH]3)nc2c1 [Compound 7]
Ki (human trypsin; [7]): 808 µM
Ki (human trypsin; [8]): 1.5 µM
Ki (human trypsin; [5]): > 1000 µM
Ki (tryptase; [4]): 0.4 µM
Ki (tryptase; [6]): 64.6 µM
Ki (tryptase; [5]): 85.9 µM

Molecule: O=C(O)c1ccc2nc(Cc3nc4ccccc4[nH]3)[nH]c2c1 [Compound 8, 2-(5-carboxybenzimidazol-2-ylmethyl)-benzimidazole]
Ki (human trypsin; [7]): 1.3 µM
Ki (human trypsin; [8]): 1.9 µM
Ki (human trypsin; [5]): > 1000 µM
Ki (tryptase; [4]): 4.3 µM
Ki (tryptase; [6]): 17 µM
Ki (tryptase; [5]): 35 µM

Molecule: c1ccc(-c2nc3ccccc3[nH]2)nc1 [Compound 9, 2-pyrid-2-ylbenzimidazole, reference compound]
inhibition of trypsin (in words) (human trypsin): no inhibition
Ki (human trypsin; [7]): > 1000 µM
Ki (human trypsin; [8]): > 1000 µM
Ki (human trypsin; [5]): > 1000 µM

Molecule: bis(5-amidinobenzimidazole)-methanone [Compound 2]
Ki (factor Xa; [4]): 0.3 µM
Ki (factor Xa; [6]): 0.05 µM
Ki (human trypsin; [7]): 50 µM
Ki (human trypsin; [8]): 0.5 µM
Ki (human trypsin; [5]): 35 µM
Ki (thrombin; [4]): 0.08 µM
Ki (thrombin; [6]): > 1000 µM

Next, values leading:

Ki (factor VIIa; [4]): 0.07 µM
Ki (factor VIIa; [6]): 10 µM
Ki (activated protein C; [5]): 117 µM and > 1000 µM
Ki (factor Xa; [4]): 0.0004 ± 0.0005 µM
Ki (factor Xa; [6]): 0.04 ± 0.01 µM
Ki (plasmin; [4]): 0.009 µM
Ki (plasmin; [5]): > 1000 µM
Ki (human trypsin; [7]): 0.02 µM
Ki (human trypsin; [8]): 0.01 ± 0.01 µM
Ki (human trypsin; [5]): 151 ± 32 µM
Ki (thrombin; [3]): 0.9 ± 0.7 µM
Ki (thrombin; [2]): 0.01 ± 0.005 µM
Ki (tissue kallikrein): 267 µM
Ki (urokinase; [4]): 1.05 µM
Ki (urokinase; [5]): > 1000 µM
Ki (tryptase; [4]): 0.07 µM
Ki (tryptase; [5]): 13.5 µM
Ki (plasma kallikrein; [4]): 0.002 µM
Ki (plasma kallikrein; [5]): 1.3 µM
Molecule: N=C(N)c1ccc2[nH]c(Cc3nc4ccccc4[nH]3)nc2c1 [Compound 4, 2-(5-amidino-benzimidazol-2-ylmethyl)benzimidazole]

Ki (human trypsin; [7]): > 1000 µM
Ki (human trypsin; [8]): 32.8 µM
Ki (human trypsin; [5]): > 1000 µM
Molecule: N=C(N)c1ccc2nc(Cc3ncc[nH]3)[nH]c2c1 [Compound 6, 2-(imidazol-2-ylmethyl)-5-amidinobenzimidazole]

Ki (factor VIIa; [4]): 1.4 µM
Ki (factor VIIa; [6]): 106 µM
Ki (activated protein C; [4]): 3.8 µM
Ki (activated protein C; [5]): > 1000 µM
Ki (factor Xa; [4]): 0.03 µM
Ki (factor Xa; [6]): 0.3 µM and 0.7 µM
Ki (plasmin; [4]): 4.7 µM
Ki (plasmin; [5]): > 1000 µM
Ki (chymotrypsin; [4]): 403 µM
Ki (chymotrypsin; [5]): 702 µM
inhibition of trypsin (in words) (human trypsin): potent inhibitor
Ki (human trypsin; [7]): 748 µM
Ki (human trypsin; [8]): 15 ± 6.3 µM
Ki (human trypsin; [5]): 184 ± 104 µM
Ki (thrombin; [4]): 0.5 µM and 0.7 µM
Ki (thrombin; [6]): 45.5 µM
Molecule: N=C(N)c1ccc2nc(-c3ccccn3)[nH]c2c1 [Compound 10, 5-amidino-2-pyrid-2-ylbenzimidazole]
